Experimental data: ChEMBL document CHEMBL4507280 (2021)

Assays:
[1] = biological target: Cyclin-G-associated kinase (Homo sapiens) (UniProt O14976); settings: Compound concentration 1000.0 nM
[2] = biological target: Serine/threonine-protein kinase haspin (Homo sapiens) (UniProt Q8TF76); settings: Compound concentration 1000.0 nM
[3] = biological target: Cyclin-dependent kinase 3 (Homo sapiens) (UniProt Q00526); settings: Compound concentration 1000.0 nM
[4] = biological target: Serine/threonine-protein kinase NIM1 (Homo sapiens) (UniProt Q8IY84); settings: Compound concentration 1000.0 nM
[5] = biological target: Mitogen-activated protein kinase kinase kinase 2 (Homo sapiens) (UniProt Q9Y2U5); settings: Compound concentration 1000.0 nM
[6] = biological target: Serine/threonine-protein kinase SIK1 (Homo sapiens) (UniProt P57059); settings: Compound concentration 1000.0 nM
[7] = biological target: Serine/threonine-protein kinase PAK 4 (Homo sapiens) (UniProt O96013); settings: Compound concentration 1000.0 nM
[8] = biological target: Serine/threonine-protein kinase 26 (Homo sapiens) (UniProt Q9P289); settings: Compound concentration 1000.0 nM
[9] = biological target: Macrophage colony-stimulating factor 1 receptor (Homo sapiens) (UniProt P07333); settings: Compound concentration 1000.0 nM
[10] = biological target: Calcium/calmodulin-dependent protein kinase type 1G (Homo sapiens) (UniProt Q96NX5); settings: Compound concentration 1000.0 nM
[11] = biological target: MAP/microtubule affinity-regulating kinase 4 (Homo sapiens) (UniProt Q96L34); settings: Compound concentration 1000.0 nM
[12] = biological target: High affinity nerve growth factor receptor (Homo sapiens) (UniProt P04629); settings: Compound concentration 1000.0 nM
[13] = test system: Tyrosine-protein kinase ABL1 (Homo sapiens), P00519 [H396P]; settings: Compound concentration 1000.0 nM
[14] = biological target: Serine/threonine-protein kinase 25 (Homo sapiens) (UniProt O00506); settings: Compound concentration 1000.0 nM
[15] = biological target: Rhodopsin kinase GRK7 (Homo sapiens) (UniProt Q8WTQ7); settings: Compound concentration 1000.0 nM
[16] = biological target: Leucine-rich repeat serine/threonine-protein kinase 2 (Homo sapiens) (UniProt Q5S007); settings: Compound concentration 1000.0 nM
[17] = biological target: Casein kinase II subunit alpha' (Homo sapiens) (UniProt P19784); settings: Compound concentration 1000.0 nM
[18] = biological target: Tyrosine-protein kinase Fer (Homo sapiens) (UniProt P16591); settings: Compound concentration 1000.0 nM
[19] = biological target: Serine/threonine-protein kinase BRSK2 (Homo sapiens) (UniProt Q8IWQ3); settings: Compound concentration 1000.0 nM
[20] = biological target: Serine/threonine-protein kinase D1 (Homo sapiens) (UniProt Q15139); settings: Compound concentration 1000.0 nM
[21] = test system: Phosphatidylinositol 4,5-bisphosphate 3-kinase catalytic subunit alpha isoform (Homo sapiens), P42336 [E545K]; settings: Compound concentration 1000.0 nM
[22] = biological target: Serine/threonine-protein kinase PLK2 (Homo sapiens) (UniProt Q9NYY3); settings: Compound concentration 1000.0 nM
[23] = test system: Fibroblast growth factor receptor 3 (Homo sapiens), P22607 [G697C]; settings: Compound concentration 1000.0 nM
[24] = biological target: Phosphatidylinositol 3-kinase C2 domain-containing subunit gamma (Homo sapiens) (UniProt O75747); settings: Compound concentration 1000.0 nM
[25] = biological target: Tyrosine-protein kinase ABL1 (Homo sapiens) (UniProt P00519); settings: Compound concentration 1000.0 nM
[26] = biological target: D(4) dopamine receptor (Homo sapiens) (UniProt P21917); settings: Compound concentration 10.0 uM
[27] = test system: Proto-oncogene tyrosine-protein kinase receptor Ret (Homo sapiens), P07949 [M918T]; settings: Compound concentration 1000.0 nM
[28] = biological target: Serine/threonine-protein kinase 4 (Homo sapiens) (UniProt Q13043); settings: Compound concentration 1000.0 nM
[29] = test system: Tyrosine-protein kinase ABL1 (Homo sapiens), P00519 [T315I]; settings: Compound concentration 1000.0 nM
[30] = biological target: Proto-oncogene tyrosine-protein kinase receptor Ret (Homo sapiens) (UniProt P07949); settings: Compound concentration 1000.0 nM
Histamine H4 receptor = Histamine H4 receptor (Homo sapiens, UniProt Q9H3N8); settings: Compound concentration 10.0 uM
[31] = test system: Mast/stem cell growth factor receptor Kit (Homo sapiens), P10721 [V559D]; settings: Compound concentration 1000.0 nM
[32] = biological target: Protein kinase C iota type (Homo sapiens) (UniProt P41743); settings: Compound concentration 1000.0 nM
[33] = biological target: Serine/threonine-protein kinase MARK2 (Homo sapiens) (UniProt Q7KZI7); settings: Compound concentration 1000.0 nM
[34] = biological target: Myosin light chain kinase (Homo sapiens) (UniProt Q32MK0); settings: Compound concentration 1000.0 nM
[35] = biological target: Phosphatidylinositol 4,5-bisphosphate 3-kinase catalytic subunit gamma isoform (Homo sapiens) (UniProt P48736); settings: Compound concentration 1000.0 nM
[36] = biological target: Ephrin type-A receptor 7 (Homo sapiens) (UniProt Q15375); settings: Compound concentration 1000.0 nM
[37] = biological target: Fibroblast growth factor receptor 1 (Homo sapiens) (UniProt P11362); settings: Compound concentration 1000.0 nM
[38] = test system: Phosphatidylinositol 4,5-bisphosphate 3-kinase catalytic subunit alpha isoform (Homo sapiens), P42336 [H1047Y]; settings: Compound concentration 1000.0 nM
[39] = biological target: Phosphatidylinositol 4,5-bisphosphate 3-kinase catalytic subunit delta isoform (Homo sapiens) (UniProt O00329); settings: Compound concentration 1000.0 nM
[40] = biological target: Interleukin-1 receptor-associated kinase 4 (Homo sapiens) (UniProt Q9NWZ3); settings: Compound concentration 1000.0 nM
[41] = biological target: Casein kinase I isoform gamma-2 (Homo sapiens) (UniProt P78368); settings: Compound concentration 1000.0 nM
[42] = biological target: Ephrin type-A receptor 1 (Homo sapiens) (UniProt P21709); settings: Compound concentration 1000.0 nM
[43] = biological target: Calcium/calmodulin-dependent protein kinase kinase 1 (Homo sapiens) (UniProt Q8N5S9); settings: Compound concentration 1000.0 nM
[44] = biological target: Mitogen-activated protein kinase kinase kinase 9 (Homo sapiens) (UniProt P80192); settings: Compound concentration 1000.0 nM

Cyclin-dependent kinase 3 (Homo sapiens), sequence (Q00526 whole entry, looked up): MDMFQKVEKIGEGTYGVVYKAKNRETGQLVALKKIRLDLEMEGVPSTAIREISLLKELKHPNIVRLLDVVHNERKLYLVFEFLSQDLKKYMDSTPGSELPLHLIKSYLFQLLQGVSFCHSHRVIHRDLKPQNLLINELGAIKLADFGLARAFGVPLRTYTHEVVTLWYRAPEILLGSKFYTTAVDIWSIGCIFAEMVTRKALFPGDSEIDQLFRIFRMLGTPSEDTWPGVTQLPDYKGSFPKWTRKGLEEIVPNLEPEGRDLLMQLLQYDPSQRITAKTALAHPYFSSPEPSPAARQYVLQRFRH
Ephrin type-A receptor 1 (Homo sapiens), sequence (P21709 whole entry): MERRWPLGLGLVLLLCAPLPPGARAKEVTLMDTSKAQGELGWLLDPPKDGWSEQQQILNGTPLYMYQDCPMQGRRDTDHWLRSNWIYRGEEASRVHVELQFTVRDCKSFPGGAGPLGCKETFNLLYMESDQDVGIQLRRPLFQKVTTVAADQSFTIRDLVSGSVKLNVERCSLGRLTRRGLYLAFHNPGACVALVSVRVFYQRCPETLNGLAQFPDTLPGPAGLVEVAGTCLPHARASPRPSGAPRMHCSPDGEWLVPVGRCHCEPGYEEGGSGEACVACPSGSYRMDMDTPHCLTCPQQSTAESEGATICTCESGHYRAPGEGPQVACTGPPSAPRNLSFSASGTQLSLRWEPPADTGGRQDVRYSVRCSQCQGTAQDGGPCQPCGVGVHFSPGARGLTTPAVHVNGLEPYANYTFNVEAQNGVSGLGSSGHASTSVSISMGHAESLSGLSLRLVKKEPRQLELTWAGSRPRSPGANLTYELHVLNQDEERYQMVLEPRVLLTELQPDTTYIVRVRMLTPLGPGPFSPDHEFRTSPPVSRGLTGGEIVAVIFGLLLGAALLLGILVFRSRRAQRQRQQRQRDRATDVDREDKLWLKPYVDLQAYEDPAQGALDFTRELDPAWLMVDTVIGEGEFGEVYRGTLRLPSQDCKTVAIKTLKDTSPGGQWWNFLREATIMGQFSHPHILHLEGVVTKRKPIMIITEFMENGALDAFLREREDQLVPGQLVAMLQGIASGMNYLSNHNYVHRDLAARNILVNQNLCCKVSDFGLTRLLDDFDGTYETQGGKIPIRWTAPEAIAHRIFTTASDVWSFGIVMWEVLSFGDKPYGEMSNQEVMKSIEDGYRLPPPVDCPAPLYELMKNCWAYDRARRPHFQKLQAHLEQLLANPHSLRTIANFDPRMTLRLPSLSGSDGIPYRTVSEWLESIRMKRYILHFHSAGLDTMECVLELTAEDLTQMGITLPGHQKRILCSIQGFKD
Interleukin-1 receptor-associated kinase 4 (Homo sapiens), sequence (Q9NWZ3 whole entry, canonical isoform): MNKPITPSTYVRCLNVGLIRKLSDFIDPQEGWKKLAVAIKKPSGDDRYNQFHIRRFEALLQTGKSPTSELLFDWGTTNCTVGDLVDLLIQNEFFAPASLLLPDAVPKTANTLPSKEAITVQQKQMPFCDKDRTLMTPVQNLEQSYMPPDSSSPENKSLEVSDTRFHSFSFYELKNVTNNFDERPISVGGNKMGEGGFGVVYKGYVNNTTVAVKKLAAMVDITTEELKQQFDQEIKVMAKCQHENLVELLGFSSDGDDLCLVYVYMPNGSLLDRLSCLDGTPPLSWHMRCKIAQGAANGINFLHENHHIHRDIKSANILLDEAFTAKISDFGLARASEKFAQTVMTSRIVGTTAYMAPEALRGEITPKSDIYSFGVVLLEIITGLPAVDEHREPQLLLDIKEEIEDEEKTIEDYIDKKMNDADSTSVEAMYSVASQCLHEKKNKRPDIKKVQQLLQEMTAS
Serine/threonine-protein kinase MARK2 (Homo sapiens), sequence (Q7KZI7 whole entry): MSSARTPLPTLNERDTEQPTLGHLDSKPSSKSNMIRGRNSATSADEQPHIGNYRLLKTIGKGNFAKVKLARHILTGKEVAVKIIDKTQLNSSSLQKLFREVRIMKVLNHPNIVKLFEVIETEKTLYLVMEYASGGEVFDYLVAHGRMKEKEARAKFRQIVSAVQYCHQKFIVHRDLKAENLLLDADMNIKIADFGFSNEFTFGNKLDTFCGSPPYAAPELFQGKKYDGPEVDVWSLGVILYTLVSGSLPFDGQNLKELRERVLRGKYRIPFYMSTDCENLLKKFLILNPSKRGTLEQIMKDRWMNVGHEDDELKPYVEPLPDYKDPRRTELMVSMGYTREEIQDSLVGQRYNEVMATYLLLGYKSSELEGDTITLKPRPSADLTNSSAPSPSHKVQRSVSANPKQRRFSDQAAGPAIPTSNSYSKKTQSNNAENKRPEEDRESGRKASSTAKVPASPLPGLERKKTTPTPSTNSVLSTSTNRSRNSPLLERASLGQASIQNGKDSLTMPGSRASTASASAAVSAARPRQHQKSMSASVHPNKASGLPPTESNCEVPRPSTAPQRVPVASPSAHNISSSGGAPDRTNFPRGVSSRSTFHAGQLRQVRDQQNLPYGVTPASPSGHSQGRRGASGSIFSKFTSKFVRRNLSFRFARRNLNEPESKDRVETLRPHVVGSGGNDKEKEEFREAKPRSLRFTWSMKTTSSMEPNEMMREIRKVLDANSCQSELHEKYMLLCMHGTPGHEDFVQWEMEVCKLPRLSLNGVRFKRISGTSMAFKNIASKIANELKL
Protein kinase C iota type (Homo sapiens), sequence (P41743 whole entry): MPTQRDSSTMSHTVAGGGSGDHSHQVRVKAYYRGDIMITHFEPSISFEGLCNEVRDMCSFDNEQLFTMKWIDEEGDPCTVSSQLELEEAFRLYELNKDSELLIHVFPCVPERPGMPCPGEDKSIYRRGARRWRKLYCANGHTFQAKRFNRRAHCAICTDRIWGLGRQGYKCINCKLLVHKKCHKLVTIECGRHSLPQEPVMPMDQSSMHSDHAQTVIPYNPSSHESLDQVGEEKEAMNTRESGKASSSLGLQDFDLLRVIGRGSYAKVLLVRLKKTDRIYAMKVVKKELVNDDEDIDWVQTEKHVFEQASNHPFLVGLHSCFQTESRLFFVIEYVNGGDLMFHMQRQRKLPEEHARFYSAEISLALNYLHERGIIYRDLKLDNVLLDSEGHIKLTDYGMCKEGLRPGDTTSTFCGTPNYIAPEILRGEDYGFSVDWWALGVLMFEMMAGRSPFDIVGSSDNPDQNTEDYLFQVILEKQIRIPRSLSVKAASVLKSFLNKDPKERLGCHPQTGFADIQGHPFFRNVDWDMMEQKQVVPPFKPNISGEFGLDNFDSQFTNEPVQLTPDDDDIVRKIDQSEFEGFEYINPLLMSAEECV
Serine/threonine-protein kinase D1 (Homo sapiens), sequence (Q15139 whole entry, canonical isoform): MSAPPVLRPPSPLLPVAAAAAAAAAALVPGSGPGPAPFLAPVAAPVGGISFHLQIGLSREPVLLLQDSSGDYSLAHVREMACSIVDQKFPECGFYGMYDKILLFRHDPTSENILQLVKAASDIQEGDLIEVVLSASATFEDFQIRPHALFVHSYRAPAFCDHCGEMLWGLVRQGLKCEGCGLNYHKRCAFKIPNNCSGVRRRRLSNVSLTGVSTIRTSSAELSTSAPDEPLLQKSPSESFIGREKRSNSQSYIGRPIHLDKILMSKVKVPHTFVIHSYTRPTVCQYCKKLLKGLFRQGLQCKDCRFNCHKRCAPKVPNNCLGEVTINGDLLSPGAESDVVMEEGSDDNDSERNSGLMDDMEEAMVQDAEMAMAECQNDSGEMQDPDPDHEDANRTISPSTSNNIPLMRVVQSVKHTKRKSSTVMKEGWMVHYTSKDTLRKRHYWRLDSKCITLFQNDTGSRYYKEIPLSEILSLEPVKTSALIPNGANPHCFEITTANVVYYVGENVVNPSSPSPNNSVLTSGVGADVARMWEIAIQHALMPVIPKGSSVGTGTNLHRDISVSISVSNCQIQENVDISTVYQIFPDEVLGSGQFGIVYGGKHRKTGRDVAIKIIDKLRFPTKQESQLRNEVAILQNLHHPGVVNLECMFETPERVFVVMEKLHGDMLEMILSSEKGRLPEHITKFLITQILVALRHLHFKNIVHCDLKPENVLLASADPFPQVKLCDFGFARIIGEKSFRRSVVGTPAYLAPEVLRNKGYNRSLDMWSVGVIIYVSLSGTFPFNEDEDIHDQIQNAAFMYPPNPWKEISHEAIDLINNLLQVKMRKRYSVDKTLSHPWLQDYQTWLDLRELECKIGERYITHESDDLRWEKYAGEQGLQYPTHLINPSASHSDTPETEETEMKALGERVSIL
Mast/stem cell growth factor receptor Kit (Homo sapiens), P10721 [V559D], sequence (P10721 whole entry V559D): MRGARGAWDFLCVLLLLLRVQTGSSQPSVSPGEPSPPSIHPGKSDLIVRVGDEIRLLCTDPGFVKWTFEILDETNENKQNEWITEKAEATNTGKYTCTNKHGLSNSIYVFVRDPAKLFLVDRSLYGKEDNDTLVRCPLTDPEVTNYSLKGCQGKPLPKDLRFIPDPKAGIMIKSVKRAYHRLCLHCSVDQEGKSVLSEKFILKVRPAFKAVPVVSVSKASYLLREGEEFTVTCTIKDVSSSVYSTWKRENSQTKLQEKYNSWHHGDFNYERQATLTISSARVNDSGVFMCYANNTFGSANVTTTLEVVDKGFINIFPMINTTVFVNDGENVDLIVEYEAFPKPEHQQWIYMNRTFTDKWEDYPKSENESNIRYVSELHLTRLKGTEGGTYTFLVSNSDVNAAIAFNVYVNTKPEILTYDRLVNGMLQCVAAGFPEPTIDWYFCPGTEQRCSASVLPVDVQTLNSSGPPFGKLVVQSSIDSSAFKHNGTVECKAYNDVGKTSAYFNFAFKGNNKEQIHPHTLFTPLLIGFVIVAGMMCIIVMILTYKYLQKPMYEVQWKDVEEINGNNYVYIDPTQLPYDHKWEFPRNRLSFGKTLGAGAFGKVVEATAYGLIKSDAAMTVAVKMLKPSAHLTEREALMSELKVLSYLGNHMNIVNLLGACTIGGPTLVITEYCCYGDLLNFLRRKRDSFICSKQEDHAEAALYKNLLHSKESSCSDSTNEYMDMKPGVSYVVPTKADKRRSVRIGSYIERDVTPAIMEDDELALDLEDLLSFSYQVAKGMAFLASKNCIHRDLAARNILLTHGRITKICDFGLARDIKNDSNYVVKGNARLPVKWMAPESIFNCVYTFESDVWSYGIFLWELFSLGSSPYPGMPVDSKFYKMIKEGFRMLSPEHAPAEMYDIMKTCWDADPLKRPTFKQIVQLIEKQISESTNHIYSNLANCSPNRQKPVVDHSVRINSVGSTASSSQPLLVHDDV

Structure (SMILES): CCC(=O)N[C@H]1CC[C@@H](C(=O)N(C)c2ccc(-c3nc4ccccc4o3)cc2)C1 [BI 99179]
- residual activity [1]: 100%
- residual activity [2]: 100%
- residual activity [3]: 98%
- residual activity [4]: 88%
- residual activity [5]: 87%
- residual activity [6]: 89%
- residual activity [7]: 100%
- residual activity [8]: 76%
- residual activity [9]: 93%
- residual activity [10]: 100%
- residual activity [11]: 100%
- residual activity [12]: 75%
- residual activity [13]: 88%
- residual activity [14]: 100%
- residual activity [15]: 82%
- residual activity [16]: 71%
- residual activity [17]: 100%
- residual activity [18]: 90%
- residual activity [19]: 97%
- residual activity [20]: 100%
- residual activity [21]: 74%
- residual activity [22]: 96%
- residual activity [23]: 100%
- residual activity [24]: 86%
- residual activity [25]: 72%
- inhibition [26]: 11.2%
- residual activity [27]: 100%
- residual activity [28]: 100%
- residual activity [29]: 86%
- residual activity [30]: 92%
- inhibition (Histamine H4 receptor): 39.3%
- residual activity [31]: 94%
- residual activity [32]: 92%
- residual activity [33]: 100%
- residual activity [34]: 97%
- residual activity [35]: 99%
- residual activity [36]: 97%
- residual activity [37]: 100%
- residual activity [38]: 97%
- residual activity [39]: 100%
- residual activity [40]: 87%
- residual activity [41]: 100%
- residual activity [42]: 100%
- residual activity [43]: 85%
- residual activity [44]: 100%

Structure (SMILES): CCC(=O)N[C@@H]1CC[C@H](C(=O)N(C)c2ccc(-c3nc4ccccc4o3)cc2)C1 [BI 99990]
- residual activity [1]: 100%
- residual activity [2]: 100%
- residual activity [3]: 100%
- residual activity [4]: 99%
- residual activity [5]: 100%
- residual activity [6]: 95%
- residual activity [7]: 100%
- residual activity [8]: 77%
- residual activity [9]: 88%
- residual activity [10]: 100%
- residual activity [11]: 82%
- residual activity [12]: 100%
- residual activity [13]: 92%
- residual activity [14]: 100%
- residual activity [15]: 93%
- residual activity [16]: 100%
- residual activity [17]: 100%
- residual activity [18]: 99%
- residual activity [19]: 76%
- residual activity [20]: 98%
- residual activity [21]: 75%
- residual activity [22]: 100%
- residual activity [23]: 88%
- residual activity [24]: 57%
- residual activity [25]: 96%
- inhibition [26]: 16.4%
- residual activity [27]: 100%
- residual activity [28]: 90%
- residual activity [29]: 79%
- residual activity [30]: 93%
- inhibition (Histamine H4 receptor): 55.3%
- residual activity [31]: 100%
- residual activity [32]: 84%
- residual activity [33]: 100%
- residual activity [34]: 100%
- residual activity [35]: 75%
- residual activity [36]: 100%
- residual activity [37]: 87%
- residual activity [38]: 100%
- residual activity [39]: 100%
- residual activity [40]: 100%
- residual activity [41]: 100%
- residual activity [42]: 87%
- residual activity [43]: 100%
- residual activity [44]: 100%
